Source: patent publication US10131652B2, “Pyrimidinyloxy benzene derivatives as herbicides” (E. I. DU PONT DE NEMOURS AND COMPANY, priority 2014, dated 2018)

Key:
Assay type in all cases: in vivo
[1] = tested on: pigweed (Amaranthus retroflexus); assay: Test B pre-/postemergence plant response
Summary of the method: (§1)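 Evaluation is visual, about 10 days after application, rating injury from 0 (none) to 100 (complete control) relative to untreated controls. Application was a preemergence soil spray on seeded pots or a postemergence spray on one- to two-leaf plants.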

[2] = tested on: wheat (Triticum aestivum); assay: Test B pre-/postemergence plant response
Summary of the method: as §1

[3] = tested on: giant foxtail (Setaria faberii); assay: Test B pre-/postemergence plant response
Summary of the method: as §1

[4] = tested on: barnyardgrass (Echinochloa crus-galli); assay: Test B pre-/postemergence plant response
Summary of the method: as §1

corn (Zea mays) [5] = assay: Test B pre-/postemergence plant response
Summary of the method: as §1

[6] = tested on: yellow nutsedge (Cyperus esculentus); assay: Test D pre-/postemergence plant response
Summary of the method: (§2)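 Visual rating, 0–100 scale (0 = no effect, 100 = complete control), versus untreated controls 13 to 15 days after treatment in greenhouse. Preemergence: seeds in loam/sand soil. Postemergence: 2 to 18 cm plants, 1- to 4-leaf stage, peat-based medium. Compounds formulated in non-phytotoxic solvent plus surfactant.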

[7] = tested on: large (Lg) crabgrass (Digitaria sanguinalis); assay: Test D pre-/postemergence plant response
Summary of the method: as §2

[8] = tested on: lambsquarters (Chenopodium album); assay: Test D pre-/postemergence plant response
Summary of the method: as §2

soybean (Glycine max) = assay: Test D pre-/postemergence plant response
Summary of the method: as §2

[9] = tested on: morningglory (Ipomoea coccinea); assay: Test D pre-/postemergence plant response
Summary of the method: as §2

[10] = tested on: galium (catchweed bedstraw, Galium aparine); assay: Test D pre-/postemergence plant response
Summary of the method: as §2

[11] = tested on: ragweed (common ragweed, Ambrosia elatior); assay: Test D pre-/postemergence plant response
Summary of the method: as §2

[12] = tested on: winter wheat (Triticum aestivum); assay: Test D pre-/postemergence plant response
Summary of the method: as §2

[13] = tested on: waterhemp (common waterhemp, Amaranthus rudis); assay: Test D pre-/postemergence plant response
Summary of the method: as §2

corn (Zea mays) [14] = assay: Test D pre-/postemergence plant response
Summary of the method: as §2

[15] = tested on: Italian ryegrass (Lolium multiflorum); assay: Test D pre-/postemergence plant response
Summary of the method: as §2

[16] = 125 g ai/ha, postemergence, 0 to 100 scale, 0 no effect, 100 complete control
[17] = Postemergence, 500 g ai/ha, 0 to 100 scale (0 no effect, 100 complete control)
[18] = Preemergence, 125 g ai/ha, 0 to 100 scale (0 no effect, 100 complete control)
[19] = Preemergence, 500 g ai/ha, 0 to 100 scale where 0 is no effect and 100 is complete control
[20] = Postemergence, 31 g ai/ha, scale 0 to 100 (0 no effect, 100 complete control)
[21] = Postemergence, 62 g ai/ha, scale 0 to 100, 0 no effect, 100 complete control
[22] = Postemergence, 125 g ai/ha, scale 0 to 100, 0 no effect, 100 complete control
[23] = Preemergence, 16 g ai/ha, scale 0 to 100 (0 no effect, 100 complete control)
[24] = Preemergence, 31 g ai/ha, scale 0 to 100 (0 no effect, 100 complete control)
[25] = Preemergence, 62 g ai/ha, scale 0 to 100 (0 no effect, 100 complete control)

Question: What does the source list for N#Cc1cccc(Oc2ncc(Cl)cn2)c1-c1cc(C(F)F)on1 [Compound 180]?
Answer: Plant response rating, Pigweed [1, 16]: 100; Plant response rating, Pigweed [1, 17]: 100; Pigweed plant response rating [1, 18]: 100; Plant response rating, Pigweed [1, 19]: 100; Plant response rating, Wheat [2, 16]: 60; Plant response rating, Wheat [2, 17]: 90; Plant response rating, Foxtail, Giant [3, 16]: 80; Plant response rating, Foxtail, Giant [3, 17]: 100; Foxtail, Giant plant response rating [3, 18]: 90; Plant response rating, Foxtail, Giant [3, 19]: 100; Plant response rating, Barnyardgrass [4, 16]: 50; Plant response rating, Barnyardgrass [4, 17]: 90; Barnyardgrass plant response rating [4, 18]: 20; Plant response rating, Barnyardgrass [4, 19]: 80; Plant response rating, Corn (corn (Zea mays) [5]; [16]): 20; Plant response rating, Corn (corn (Zea mays) [5]; [17]): 70; Plant response rating (scale 0 to 100), Nutsedge, Yellow ([6]; Postemergence, 16 g ai/ha): 0; Nutsedge, Yellow plant response rating [6, 20]: 0; Nutsedge, Yellow plant response rating [6, 21]: 10; Plant response rating, Nutsedge, Yellow [6, 22]: 15; Plant response rating (scale 0 to 100), Nutsedge, Yellow ([6]; Preemergence, 125 g ai/ha): 30; Plant response rating, Nutsedge, Yellow [6, 23]: 0; Plant response rating, Nutsedge, Yellow [6, 24]: 0; Plant response rating, Nutsedge, Yellow [6, 25]: 0; Plant response rating (scale 0 to 100), Crabgrass, Large ([7]; Postemergence, 16 g ai/ha): 5; Crabgrass, Large plant response rating [7, 20]: 5; Plant response rating, Crabgrass, Large [7, 21]: 5; Plant response rating, Crabgrass, Large [7, 22]: 5; Plant response rating (scale 0 to 100), Crabgrass, Large ([7]; Preemergence, 125 g ai/ha): 100; Plant response rating, Crabgrass, Large [7, 23]: 30; Plant response rating, Crabgrass, Large [7, 24]: 75; Plant response rating, Crabgrass, Large [7, 25]: 100; Plant response rating (scale 0 to 100), Lambsquarters ([8]; Postemergence, 16 g ai/ha): 70; Lambsquarters plant response rating [8, 20]: 80; Lambsquarters plant response rating [8, 21]: 98; Plant response rating, Lambsquarters [8, 22]: 98; Plant response rating (scale 0 to 100), Lambsquarters ([8]; Preemergence, 125 g ai/ha): 90; Plant response rating, Lambsquarters [8, 23]: 95; Plant response rating, Lambsquarters [8, 24]: 100; Plant response rating, Lambsquarters [8, 25]: 100; Plant response rating (scale 0 to 100), Soybean (soybean (Glycine max); Postemergence, 16 g ai/ha): 45; Soybean plant response rating (soybean (Glycine max); [20]): 60; Soybean plant response rating (soybean (Glycine max); [21]): 70; Plant response rating, Soybean (soybean (Glycine max); [22]): 85; Plant response rating (scale 0 to 100), Soybean (soybean (Glycine max); Preemergence, 125 g ai/ha): 80; Plant response rating, Soybean (soybean (Glycine max); [23]): 5; Plant response rating, Soybean (soybean (Glycine max); [24]): 25; Plant response rating, Soybean (soybean (Glycine max); [25]): 60; Plant response rating (scale 0 to 100), Morningglory ([9]; Postemergence, 16 g ai/ha): 40; Morningglory plant response rating [9, 20]: 55; Morningglory plant response rating [9, 21]: 90; Plant response rating, Morningglory [9, 22]: 90; Plant response rating (scale 0 to 100), Morningglory ([9]; Preemergence, 125 g ai/ha): 100; Plant response rating, Morningglory [9, 23]: 0; Plant response rating, Morningglory [9, 24]: 0; Plant response rating, Morningglory [9, 25]: 5; Plant response rating (scale 0 to 100), Galium ([10]; Postemergence, 16 g ai/ha): 65; Galium plant response rating [10, 20]: 75; Plant response rating, Galium [10, 21]: 100; Plant response rating, Galium [10, 22]: 100; Plant response rating (scale 0 to 100), Galium ([10]; Preemergence, 125 g ai/ha): 98; Plant response rating, Galium [10, 23]: 75; Plant response rating, Galium [10, 24]: 80; Plant response rating, Galium [10, 25]: 98; Plant response rating (scale 0 to 100), Ragweed ([11]; Postemergence, 16 g ai/ha): 30; Ragweed plant response rating [11, 20]: 40; Ragweed plant response rating [11, 21]: 35; Plant response rating, Ragweed [11, 22]: 65; Plant response rating (scale 0 to 100), Ragweed ([11]; Preemergence, 125 g ai/ha): 55; Plant response rating, Ragweed [11, 23]: 0; Plant response rating, Ragweed [11, 24]: 5; Plant response rating, Ragweed [11, 25]: 15; Plant response rating (scale 0 to 100), Wheat ([12]; Postemergence, 16 g ai/ha): 5; Wheat plant response rating [12, 20]: 5; Wheat plant response rating [12, 21]: 15; Plant response rating, Wheat [12, 22]: 30; Plant response rating (scale 0 to 100), Wheat ([12]; Preemergence, 125 g ai/ha): 30; Plant response rating, Wheat [12, 23]: 0; Plant response rating, Wheat [12, 24]: 0; Plant response rating, Wheat [12, 25]: 0; Plant response rating (scale 0 to 100), Waterhemp ([13]; Postemergence, 16 g ai/ha): 40; Waterhemp plant response rating [13, 20]: 75; Waterhemp plant response rating [13, 21]: 90; Plant response rating, Waterhemp [13, 22]: 98; Plant response rating (scale 0 to 100), Waterhemp ([13]; Preemergence, 125 g ai/ha): 100; Plant response rating, Waterhemp [13, 23]: 40; Plant response rating, Waterhemp [13, 24]: 95; Plant response rating, Waterhemp [13, 25]: 95; Plant response rating (scale 0 to 100), Corn (corn (Zea mays) [14]; Postemergence, 16 g ai/ha): 5; Corn plant response rating (corn (Zea mays) [14]; [20]): 5; Plant response rating, Corn (corn (Zea mays) [14]; [21]): 10; Plant response rating, Corn (corn (Zea mays) [14]; [22]): 15; Plant response rating (scale 0 to 100), Corn (corn (Zea mays) [14]; Preemergence, 125 g ai/ha): 30; Plant response rating, Corn (corn (Zea mays) [14]; [23]): 0; Plant response rating, Corn (corn (Zea mays) [14]; [24]): 0; Plant response rating, Corn (corn (Zea mays) [14]; [25]): 5; Plant response rating (scale 0 to 100), Ryegrass, Italian ([15]; Postemergence, 16 g ai/ha): 0; Ryegrass, Italian plant response rating [15, 20]: 0; Ryegrass, Italian plant response rating [15, 21]: 5; Plant response rating, Ryegrass, Italian [15, 22]: 20; Plant response rating (scale 0 to 100), Ryegrass, Italian ([15]; Preemergence, 125 g ai/ha): 65; Plant response rating, Ryegrass, Italian [15, 23]: 0; Plant response rating, Ryegrass, Italian [15, 24]: 0; Plant response rating, Ryegrass, Italian [15, 25]: 50
